Experimental data reported in PubChem BioAssay AID1963442 (Molecular Pharmacology Branch, DTP, NCI, 2024).
“And” between values parts separate entries of the source, which are not always exact repeats. Equal entries are not always repeated.

Tested on: MPNST complex spheroid with HUVEC/MSC, growth, % test/control
Assay: Anticancer human tumor MPNST cell line growth inhibition [Asc];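 further: compounds left on spheroids for seven days before reading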
Conditions: for viability, T/C: stronger effect = lower value
Method: Multicellular complex tumor spheroid response to apoptosis pathway targeting inhibitors Alrizomadlin, Pelcitoclax, and Dasminapant in combination with a variety of drugs and investigational agents in selected tumor cell lines
The MDM2 inhibitor alrizomadlin, the Bcl-2/Bcl-xL inhibitor pelcitoclax, and the IAPs inhibitor dasminapant were evaluated both individually and in combination with standard of care and investigational anticancer small molecules within a complex spheroid model of solid tumors. . Complex spheroids include a stromal component modeled by human endothelial cells (HUVEC) and fibroblasts modeled by human mesenchymal stem cells (MSCs). The concentration ranges selected for each drug and investigational agent were based upon clinically achievable concentrations if the clinical Cmax of the agent was known.
Compounds. The drugs and investigational agents: alrizomadlin (APG-115; NSC831270), pelcitoclax (APG-1252; NSC835773), dasminapant (APG-1387;NSC834197), TAK-243 (NSC785004), copanlisib (NSC809693), olaparib (NSC753686), talazoparib (NSC767125), cobimetinib (NSC 768068), eltanexor (KPT-8602, NSC 794443), abemaciclib (NSC 768073), sotorasib (NSC818433), adagrasib (NSC 831453), MRTX-1133 (NSC 836407), Iadademestat (ORY1001, NSC 806812), and RMC-4630 (NSC839698), were obtained from the NCI Developmental Therapeutics Program Chemical Repository. The FDA-approved anticancer drug set is available from the Developmental Therapeutics Program at https://dtp.cancer.gov/organization/dscb/obtaining/available plates.htm. […] The stock solutions were prepared in dimethyl sulfoxide (DMSO, Sigma-Aldrich, St. Louis, MO, cat. D2650) at 800-fold the tested concentration and stored at -70 degrees C prior to their use. All drugs and investigational agents were tested over a range starting from a high concentration at or near the clinical Cmax and decreasing in half-log increments. If the clinical Cmax for an agent had not been determined, the highest concentration tested was 10 microM.
The patient-derived cancer (PDC) cell lines include five colon adenocarcinomas: 186277-243-T-J2-PDC, 616215-338-R-J1-PDC, 439559-082-T-J2-PDC, 463943-066-T-J2-PDC, and 519858-162-T-J1-PDC; three pancreatic carcinomas: 323965-272-R-J2-PDC, 521955-158-R6-J3-PDC, and 521955-158-R2-J5-PDC; two uterine sarcomas: 327498-152-R-J2-PDC and 993429-296-R-J1-PDC; two rhabdomyosarcomas: 755483-174-R-J1-PDC and 772245-204-R-J1-PDC; two soft tissue sarcomas: 126254-015-R-J1-PDC and 494315-158-R-J1-PDC; two malignant fibrous histiocytomas: 317291-083-R-J1-PDC and 596521-263-R-J1-PDC; two breast carcinomas: 171881-019-R-J1-PDC and 885512-296-R-J2-PDC; and one ovarian carcinoma: 6556581-035-R-J-PDC were obtained from the NCI PDMR, (https://pdmr.cancer.gov). The established cell lines HSSY-2 synovial sarcoma (RRID:CVCL 8719), SYO-1 synovial sarcoma (RRID:CVCL_7146), MPNST malignant peripheral neural sheath tumor were obtained from the Sloan Kettering Institute. The following established cell lines were purchased from the American Type Culture Collection (ATCC, Manassas, VA), Sor the received from the NCI repository:, PANC-1 pancreatic carcinoma (CRL-1469, RRID:CVCL_0480), OVCAR-5 ovarian carcinoma (RRID:CVCL_1628), OVCAR-8 ovarian carcinoma (RRID:CVCL_1629), , MCF-7 breast carcinoma (CRL-12584, RRID:CVCL_0031), MDA-MB-231 breast carcinoma (CRL-12532, RRID:CVCL_0062), NCI-H1876 small cell lung carcinoma (CRL-5902, RRID:CVCL_1503), NCI-H510A small cell lung carcinoma (HTB-184, RRID:CVCL_1565), NCI-H1417 (CRL-5869, RRID:CVCL_1469), and NCI-H196 small cell lung carcinoma (CRL-5823, RRID:CVCL_1509). Dr. Peter Houghton (Greehey Children's Cancer Research Institute, University of Texas Health Science Center, San Antonio, TX) provided Rh-18 rhabdomyosarcoma (RRID:CVCL_1659). Pooled donor human umbilical vein endothelial cells (HUVEC, Lonza, cat. CC-2519) and human mesenchymal stem cells (hMSC, Lonza, cat. PT-2501) were purchased from Lonza (Walkersville, MD).
Cell Culture. […]

[1] = curve of first compound, second compound 0.1 µM
[2] = curve of first compound, second compound 0.316 µM
[3] = curve of first compound, second compound 1 µM
[4] = second compound 0.1 µM, first compound 0.0316 µM
[5] = second compound 0.1 µM, first compound 0.1 µM
[6] = second compound 0.1 µM, first compound 0.316 µM
[7] = second compound 0.1 µM, first compound 1 µM
[8] = second compound 0.1 µM, first compound 3.16 µM
[9] = second compound 0.1 µM, first compound 10 µM
[10] = second compound 0.316 µM, first compound 0.0316 µM
[11] = second compound 0.316 µM, first compound 0.1 µM
[12] = second compound 0.316 µM, first compound 0.316 µM
[13] = second compound 0.316 µM, first compound 1 µM
[14] = second compound 0.316 µM, first compound 3.16 µM
[15] = second compound 0.316 µM, first compound 10 µM
[16] = second compound 1 µM, first compound 0.0316 µM
[17] = second compound 1 µM, first compound 0.1 µM
[18] = second compound 1 µM, first compound 0.316 µM
[19] = second compound 1 µM, first compound 1 µM
[20] = second compound 1 µM, first compound 3.16 µM
[21] = second compound 1 µM, first compound 10 µM

C=CC(=O)N1CCN(c2nc(=O)n(-c3c(C)ccnc3C(C)C)c3nc(-c4c(O)cccc4F)c(F)cc23)C(C)C1 (centres undefined) + CNC(C)C(=O)NC1CN(S(=O)(=O)c2cccc(S(=O)(=O)N3CCC4CCC(C(=O)NC(c5ccccc5)c5ccccc5)N4C(=O)C(NC(=O)C(C)NC)C3)c2)CCC2CCC(C(=O)NC(c3ccccc3)c3ccccc3)N2C1=O
IC50 (curve of first compound, second compound 0.00316 µM): > 10 µM
IC50 (curve of first compound, second compound 0.01 µM): > 10 µM
IC50 (curve of first compound, second compound 0.0316 µM): > 10 µM
IC50 [1]: > 10 µM
IC50 [2]: > 10 µM
IC50 [3]: > 10 µM
viability, T/C (second compound 0.00316 µM, first compound 0.0316 µM): 81.6%
viability, T/C (second compound 0.00316 µM, first compound 0.1 µM): 98.1%
viability, T/C (second compound 0.00316 µM, first compound 0.316 µM): 94.1%
viability, T/C (second compound 0.00316 µM, first compound 1 µM): 102%
viability, T/C (second compound 0.00316 µM, first compound 3.16 µM): 110%
viability, T/C (second compound 0.00316 µM, first compound 10 µM): 128%
viability, T/C (second compound 0.01 µM, first compound 0.0316 µM): 81.2%
viability, T/C (second compound 0.01 µM, first compound 0.1 µM): 101%
viability, T/C (second compound 0.01 µM, first compound 0.316 µM): 84%
viability, T/C (second compound 0.01 µM, first compound 1 µM): 112%
viability, T/C (second compound 0.01 µM, first compound 3.16 µM): 114%
viability, T/C (second compound 0.01 µM, first compound 10 µM): 145%
viability, T/C (second compound 0.0316 µM, first compound 0.0316 µM): 96.1%
viability, T/C (second compound 0.0316 µM, first compound 0.1 µM): 69.1%
viability, T/C (second compound 0.0316 µM, first compound 0.316 µM): 127%
viability, T/C (second compound 0.0316 µM, first compound 1 µM): 109%
viability, T/C (second compound 0.0316 µM, first compound 3.16 µM): 125%
viability, T/C (second compound 0.0316 µM, first compound 10 µM): 185%
viability, T/C [4]: 101%
viability, T/C [5]: 92.7%
viability, T/C [6]: 117%
viability, T/C [7]: 107%
viability, T/C [8]: 127%
viability, T/C [9]: 161%
viability, T/C [10]: 73%
viability, T/C [11]: 79.5%
viability, T/C [12]: 113%
viability, T/C [13]: 106%
viability, T/C [14]: 115%
viability, T/C [15]: 148%
viability, T/C [16]: 98.4%
viability, T/C [17]: 99.9%
viability, T/C [18]: 102%
viability, T/C [19]: 79%
viability, T/C [20]: 143%
viability, T/C [21]: 154%

O=C(c1cc(Cc2n[nH]c(=O)c3ccccc23)ccc1F)N1CCN(C(=O)C2CC2)CC1 + Cc1c(S(C)(=O)=O)c(-c2cc(F)cc(N3CCN(c4ccc(NS(=O)(=O)c5ccc(NC(CCN6CCC(C(=O)OCCCP(=O)(O)O)CC6)CSc6ccccc6)c(S(=O)(=O)C(F)(F)F)c5)cc4)CC3)c2)c(-c2ccc(Cl)cc2)n1C(C)C
IC50 [1]: > 10 µM
IC50 [2]: > 10 µM
IC50 [3]: 9.83 µM
IC50 (curve of first compound, second compound 3.16 µM): > 10 µM
IC50 (curve of first compound, second compound 10 µM): > 10 µM
viability, T/C [4]: 81.9%
viability, T/C [5]: 59.6%
viability, T/C [6]: 68.3%
viability, T/C [7]: 64.5%
viability, T/C [8]: 81.1%
viability, T/C [9]: 64.5%
viability, T/C [10]: 70.9%
viability, T/C [11]: 67.1%
viability, T/C [12]: 56.8%
viability, T/C [13]: 69.5%
viability, T/C [14]: 60.8%
viability, T/C [15]: 49.8%
viability, T/C [16]: 58.5%
viability, T/C [17]: 78.6%
viability, T/C [18]: 65.6%
viability, T/C [19]: 79.7%
viability, T/C [20]: 72.6%
viability, T/C [21]: 49.7%
viability, T/C (second compound 3.16 µM, first compound 0.0316 µM): 101%
viability, T/C (second compound 3.16 µM, first compound 0.1 µM): 72.9%
viability, T/C (second compound 3.16 µM, first compound 0.316 µM): 77.1%
viability, T/C (second compound 3.16 µM, first compound 1 µM): 64%
viability, T/C (second compound 3.16 µM, first compound 3.16 µM): 58.8%
viability, T/C (second compound 3.16 µM, first compound 10 µM): 51.5%
viability, T/C (second compound 10 µM, first compound 0.0316 µM): 75%
viability, T/C (second compound 10 µM, first compound 0.1 µM): 85.8%
viability, T/C (second compound 10 µM, first compound 0.316 µM): 76.9%
viability, T/C (second compound 10 µM, first compound 1 µM): 62.5%
viability, T/C (second compound 10 µM, first compound 3.16 µM): 68.9%
viability, T/C (second compound 10 µM, first compound 10 µM): 49%

COc1c(OCCCN2CCOCC2)ccc2c3n(c(=NC(=O)c4cnc(N)nc4)nc12)CCN3
viability, T/C (compound 0.00316 µM): 84.8% and 70.3% and 54.3%
viability, T/C (compound 0.01 µM): 97% and 81% and 50.6%
viability, T/C (compound 0.0316 µM): 70.7% and 52.5% and 38.8%
viability, T/C (compound 0.1 µM): 39.8% and 39.5% and 13.7%
viability, T/C (compound 0.316 µM): 31.4% and 24.9% and 9.45%
viability, T/C (compound 1 µM): 24% and 18.9% and 5.21%
IC50 (curve of compound): 0.0687 µM and 0.0495 µM and 0.0115 µM
